Experimental data taken from ChEMBL document CHEMBL1201862, “PubChem BioAssay data set” (2004).
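96-well plates; 48 h exposure; 5 concentrations. Endpoints by linear interpolation between flanking doses. Not reached: highest tested concentration assigned. Here, GI50 denotes the concentration required for 50% inhibition of growth.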 The source made the active and inactive calls. Rule as the data show it: active = GI50 up to about 1.1 µM and inactive = higher.

Legend:
Experiment in all cases: growth of human tumour cells (NCI), 48 h
A498 = system: A498
ACHN = system: ACHN
CAKI-1 = system: CAKI-1
DU-145 = system: DU-145
HL-60 = system: HL-60
HOP-62 = system: HOP-62
Hs-578T = system: Hs-578T
K562 = system: K562
KM12 = system: KM12
MDA-MB-231 = system: MDA-MB-231
NCI-H522 = system: NCI-H522
OVCAR-5 = system: OVCAR-5
PC-3 = system: PC-3
SF-295 = system: SF-295
SF-539 = system: SF-539
SN12C = system: SN12C
T47D = system: T47D
UACC-257 = system: UACC-257
UACC-62 = system: UACC-62
UO-31 = system: UO-31

Measured: GI50

Cc1ccc(S(=O)(=O)Oc2coc(CO)cc2=O)cc1
inactive: A498 15.5 µM | ACHN 18 µM | CAKI-1 4.42 µM | DU-145 12.2 µM | HL-60 3.14 µM | HOP-62 14.7 µM | Hs-578T 19.5 µM | K562 6.04 µM | KM12 4.86 µM | MDA-MB-231 18.6 µM | NCI-H522 1.76 µM | OVCAR-5 17.8 µM | PC-3 15.1 µM | SF-295 16 µM | SF-539 20.2 µM | SN12C 12.7 µM | T47D 13.3 µM | UACC-257 15.3 µM | UACC-62 11.9 µM | UO-31 14.1 µM

COc1ccc2c(c1)CN([C@@H](C)[C@H]1CC[C@H]3[C@@H]4CC[C@H]5C[C@@H](O)CC[C@]5(C)[C@H]4CC[C@]13C)CO2
active: K562 0.787 µM
inactive: A498 1.88 µM | ACHN 3.21 µM | CAKI-1 4.75 µM | DU-145 4.68 µM | HL-60 2.47 µM | HOP-62 2 µM | Hs-578T 1.61 µM | KM12 1.75 µM | MDA-MB-231 2.42 µM | NCI-H522 1.95 µM | OVCAR-5 3.13 µM | PC-3 2.44 µM | SF-295 1.45 µM | SF-539 1.59 µM | SN12C 8.57 µM | T47D 3.56 µM | UACC-257 2.2 µM | UACC-62 2 µM | UO-31 1.81 µM

O=C1CC(c2ccccc2)n2cccc21 (stereo not given)
inactive: A498 > 100 µM | ACHN > 100 µM | CAKI-1 > 100 µM | DU-145 > 100 µM | HL-60 65.6 µM | HOP-62 > 100 µM | Hs-578T > 100 µM | K562 > 100 µM | KM12 > 100 µM | MDA-MB-231 > 100 µM | NCI-H522 > 100 µM | OVCAR-5 > 100 µM | PC-3 > 100 µM | SF-295 > 100 µM | SF-539 > 100 µM | SN12C > 100 µM | T47D > 100 µM | UACC-257 > 100 µM | UACC-62 > 100 µM | UO-31 67.6 µM

COC(=O)c1ccc(Oc2nc3ccc(C(F)(F)F)cc3nc2-c2ccccc2)cc1
inactive: A498 > 100 µM | ACHN 56.9 µM | CAKI-1 > 100 µM | DU-145 > 100 µM | HL-60 > 100 µM | HOP-62 > 100 µM | Hs-578T > 100 µM | K562 60.8 µM | KM12 > 100 µM | MDA-MB-231 > 100 µM | NCI-H522 94.6 µM | OVCAR-5 > 100 µM | PC-3 > 100 µM | SF-295 > 100 µM | SF-539 > 100 µM | SN12C > 100 µM | T47D 56.2 µM | UACC-257 > 100 µM | UACC-62 > 100 µM | UO-31 > 100 µM

Cc1ccnc2nc(-c3ccc(Cl)cc3)cc(O)c12
inactive: A498 3.65 µM | ACHN > 24.9 µM | CAKI-1 6.68 µM | DU-145 13.5 µM | HL-60 1.58 µM | HOP-62 8.41 µM | Hs-578T 3.9 µM | K562 1.89 µM | KM12 3.16 µM | MDA-MB-231 14.8 µM | NCI-H522 2.58 µM | OVCAR-5 > 100 µM | PC-3 2.89 µM | SF-295 4.38 µM | SF-539 5.74 µM | SN12C 8.2 µM | T47D > 24.5 µM | UACC-257 > 100 µM | UACC-62 3.01 µM | UO-31 13.1 µM

CN(/N=C/c1ccccc1O)c1ccc2ccccc2n1
inactive: A498 20 µM | ACHN 25.4 µM | CAKI-1 33.9 µM | DU-145 20.1 µM | HL-60 81.7 µM | HOP-62 16.4 µM | Hs-578T 26.7 µM | K562 60.3 µM | KM12 21.3 µM | MDA-MB-231 29.8 µM | NCI-H522 24.9 µM | OVCAR-5 41.2 µM | PC-3 17.5 µM | SF-295 16.2 µM | SF-539 22.6 µM | SN12C 32.4 µM | T47D 13.5 µM | UACC-257 52.8 µM | UACC-62 35.2 µM | UO-31 20.8 µM

N#Cc1cnn2c1n[n+]([O-])c1ccc(Cl)cc12
inactive: A498 19.3 µM | ACHN 5.79 µM | CAKI-1 1.26 µM | DU-145 14.9 µM | HL-60 2.86 µM | HOP-62 15.2 µM | Hs-578T 5.3 µM | K562 1.71 µM | KM12 25.6 µM | MDA-MB-231 15.1 µM | NCI-H522 1.75 µM | OVCAR-5 > 45.1 µM | PC-3 14.7 µM | SF-295 14.7 µM | SF-539 18.2 µM | SN12C 7.91 µM | T47D 17.3 µM | UACC-257 9.35 µM | UACC-62 4.49 µM | UO-31 13.5 µM

CCOC(=O)c1nc2cc(C(F)(F)F)ccc2nc1Nc1cc(OC)c(OC)c(OC)c1
inactive: A498 > 100 µM | ACHN > 100 µM | CAKI-1 > 100 µM | DU-145 > 100 µM | HL-60 > 100 µM | HOP-62 > 100 µM | Hs-578T > 100 µM | K562 > 100 µM | KM12 > 100 µM | MDA-MB-231 > 100 µM | NCI-H522 > 100 µM | OVCAR-5 > 100 µM | PC-3 > 100 µM | SF-295 > 100 µM | SF-539 > 100 µM | SN12C > 100 µM | T47D > 100 µM | UACC-257 > 100 µM | UACC-62 > 100 µM | UO-31 > 100 µM

CC12O[C@]3([C@H](C(=O)N4CCOC43C)[C@H]1Cl)[C@H]1O[C@H]12 (stereo not given in full)
inactive: A498 > 100 µM | ACHN > 100 µM | CAKI-1 > 100 µM | DU-145 > 100 µM | HL-60 > 100 µM | HOP-62 > 100 µM | Hs-578T > 100 µM | K562 98.6 µM | KM12 > 100 µM | MDA-MB-231 > 100 µM | NCI-H522 > 100 µM | OVCAR-5 > 100 µM | PC-3 > 100 µM | SF-295 > 100 µM | SF-539 > 100 µM | SN12C > 100 µM | T47D > 100 µM | UACC-257 > 100 µM | UACC-62 > 100 µM | UO-31 > 100 µM

COc1ccc2nc3ccccc3c(NCCCCN(CCCl)CCCl)c2c1
active: A498 0.109 µM | ACHN 0.041 µM | CAKI-1 0.0253 µM | DU-145 0.933 µM | HL-60 0.0186 µM | HOP-62 0.655 µM | K562 0.0376 µM | KM12 0.128 µM | MDA-MB-231 0.7 µM | NCI-H522 0.02 µM | OVCAR-5 0.507 µM | PC-3 0.316 µM | SF-295 0.0863 µM | SF-539 0.136 µM | SN12C 0.0843 µM | UACC-257 1.05 µM | UACC-62 0.245 µM | UO-31 0.443 µM
inactive: Hs-578T 2 µM | T47D 1.26 µM
